The experiment addresses T1, 1-phosphatidylinositol 3-phosphate 5-kinase [S696N,L932S,Q995L,T998S,S1033A,Q1183K] (Homo sapiens, UniProt Q9Y2I7, L932S/Q1183K/Q995L/S1033A/S696N/T998S).
T1 construct: gene PIKFYVE
Nature of the experiment: PIKfyve Biochemical Assay. The method, then: The biochemical PIKfyve inhibition assays were run by Carna Biosciences according to proprietary methodology based on the Promega ADP-Glo™ Kinase assay. […] GST-PIKFYVE was purified by using glutathione sepharose chromatography and used in an ADP-Glo™ Kinase assay (Promega). Reactions were set up by adding the test compound solution, substrate solution, ATP solution and kinase solution, each at 4× final concentrations. Reactions were prepared with assay buffer (50 mM MOPS, 1 mM DTT, pH7.2), mixed, and incubated in black 384 well polystyrene plates for 1 hour at room temperature. ADP-Glo™ reagent was then added for 40 minutes, followed by kinase detection reagent for an additional 40 minutes. The kinase activity was evaluated by detecting relative light units on a luminescence plate reader. Samples were run in duplicate from 10 μM to 3 nM. […] IC50 values were calculated from concentration vs % inhibition curves by fitting to a four-parameter logistic curve.

The structures appear in SMILES notation.

T1 sequence (Q9Y2I7 2-2098 S696N/L932S/Q995L/T998S/S1033A/Q1183K limits assumed): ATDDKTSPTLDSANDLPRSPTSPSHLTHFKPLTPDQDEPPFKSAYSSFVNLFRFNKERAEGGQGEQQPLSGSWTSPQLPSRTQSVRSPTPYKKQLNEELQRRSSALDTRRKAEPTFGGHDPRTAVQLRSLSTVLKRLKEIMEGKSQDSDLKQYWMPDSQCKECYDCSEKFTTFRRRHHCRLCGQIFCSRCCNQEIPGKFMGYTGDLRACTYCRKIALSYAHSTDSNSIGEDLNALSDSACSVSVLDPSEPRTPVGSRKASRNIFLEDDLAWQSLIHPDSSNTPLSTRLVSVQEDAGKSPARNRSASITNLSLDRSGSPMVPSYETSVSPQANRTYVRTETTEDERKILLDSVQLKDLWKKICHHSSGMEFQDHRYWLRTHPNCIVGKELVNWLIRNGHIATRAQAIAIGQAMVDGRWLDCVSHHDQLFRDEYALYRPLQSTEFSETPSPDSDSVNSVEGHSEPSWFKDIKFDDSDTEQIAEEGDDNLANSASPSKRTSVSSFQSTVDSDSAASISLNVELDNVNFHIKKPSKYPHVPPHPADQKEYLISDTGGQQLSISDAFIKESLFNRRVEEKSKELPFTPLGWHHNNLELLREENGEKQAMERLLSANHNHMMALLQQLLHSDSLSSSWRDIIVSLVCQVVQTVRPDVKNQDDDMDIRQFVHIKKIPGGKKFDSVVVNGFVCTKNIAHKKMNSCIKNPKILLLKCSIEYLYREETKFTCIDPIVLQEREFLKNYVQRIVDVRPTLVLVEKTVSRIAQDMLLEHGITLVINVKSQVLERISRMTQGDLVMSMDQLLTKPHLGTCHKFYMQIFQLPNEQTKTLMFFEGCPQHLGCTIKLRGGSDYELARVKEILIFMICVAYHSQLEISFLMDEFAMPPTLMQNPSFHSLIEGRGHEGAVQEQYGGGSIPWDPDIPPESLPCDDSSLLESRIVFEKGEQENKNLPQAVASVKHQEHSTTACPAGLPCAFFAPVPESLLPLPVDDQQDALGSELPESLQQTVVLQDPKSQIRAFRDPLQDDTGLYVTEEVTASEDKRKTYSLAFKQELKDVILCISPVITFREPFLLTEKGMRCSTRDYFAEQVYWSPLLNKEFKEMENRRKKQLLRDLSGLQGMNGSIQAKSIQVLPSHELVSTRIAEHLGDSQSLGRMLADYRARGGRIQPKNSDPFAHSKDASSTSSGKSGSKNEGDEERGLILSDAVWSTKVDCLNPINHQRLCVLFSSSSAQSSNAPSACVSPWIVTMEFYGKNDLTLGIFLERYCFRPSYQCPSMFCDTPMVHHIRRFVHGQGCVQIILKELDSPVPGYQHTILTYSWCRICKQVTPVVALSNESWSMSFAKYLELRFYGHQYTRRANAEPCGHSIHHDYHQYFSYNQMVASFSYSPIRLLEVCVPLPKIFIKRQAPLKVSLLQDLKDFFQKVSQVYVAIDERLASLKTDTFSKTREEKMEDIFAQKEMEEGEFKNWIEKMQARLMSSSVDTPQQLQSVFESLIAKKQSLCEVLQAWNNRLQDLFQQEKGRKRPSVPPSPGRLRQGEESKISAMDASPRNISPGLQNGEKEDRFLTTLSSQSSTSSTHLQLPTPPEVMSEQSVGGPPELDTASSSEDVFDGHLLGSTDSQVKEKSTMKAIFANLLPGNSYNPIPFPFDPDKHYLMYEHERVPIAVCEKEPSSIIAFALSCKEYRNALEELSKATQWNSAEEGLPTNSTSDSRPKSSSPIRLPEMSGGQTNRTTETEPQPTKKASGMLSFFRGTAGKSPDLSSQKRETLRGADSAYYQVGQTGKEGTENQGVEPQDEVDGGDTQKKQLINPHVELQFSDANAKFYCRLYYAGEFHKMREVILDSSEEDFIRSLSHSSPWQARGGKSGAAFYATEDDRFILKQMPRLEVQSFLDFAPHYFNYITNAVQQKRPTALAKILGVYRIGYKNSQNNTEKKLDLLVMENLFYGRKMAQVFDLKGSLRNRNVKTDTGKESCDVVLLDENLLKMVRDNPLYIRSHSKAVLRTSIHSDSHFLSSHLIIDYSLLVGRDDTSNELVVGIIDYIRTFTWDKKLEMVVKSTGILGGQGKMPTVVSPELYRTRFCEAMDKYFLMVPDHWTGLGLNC

For orientation: IC50 means the concentration that gives 50% inhibition. Read a low IC50 as greater potency in that assay. With `c1ccc(-c2c[nH]c3c(-c4ccncc4)nc(N4CCOCC4)nc23)cc1` [US20250145642, Compound 135], the IC50 is less than 10 nM.

The values above are taken from BindingDB's records for patent US20250145642 (Kineta, 2025).
